In paper PMC8710297, “Identification of potent SENP1 inhibitors that inactivate SENP1/JAK2/STAT signaling pathway and overcome platinum drug resistance in ovarian cancer” (Clinical and Translational Medicine, 2021):

Test system: STAT3
Assay: pSTAT3 levels in IGROV1 CR cells (immunoblotting)
Format: cell-based
Conditions: Homo sapiens, IGROV-1, 48 h, read-out: IC50 (pSTAT3 levels, Figure 3C)
Experimental: FIGURE 3 Identification of UAMMC9 from UA derivatives. (A) Synthesis of UA derivatives. Reagents and conditions: (i) Ac2O, DMAP, Pyridine, r.t.; (ii) Oxalyl chloride, CH2Cl2, r.t., overnight; (iii) amines, TEA, r.t., 0.5–4 h; (iv) NaOH a.q., MeOH/THF, r.t.; (v) amines, MeOH, reflux; (vi) K2CO3, DMF, 60°C. The detail of synthesis was included in supplemental materials. (B) UAMMC9 inhibits Sentrin‐specific protease 1 (SENP1) activity in cells. (C) IGROV1 CR cells treated with indicated UAMMC9 for 48 h. Cells were then harvested and lysates were resolved on sodium dodecyl sulphate‐polyacrylamide gel electrophoresis, followed by immunoblotting for indicated proteins. (D) Cellular thermal shift assay to examine the interaction of UAMMC9 with SENP1. IGROV1 CR cells were incubated with DMSO or UAMMC9 for 4 h before treatment as in Figure 2A. (E) In vitro thermal shift assay to analyze the interactions of UAMMC9 with purified GST‐SENP1(C603A). Stability of SENP1(C603A) was analyzed by using Western blot against SENP1 antibody. […]
Figue S2. […] (B) Quantification of SENP1 in h ib iti o n by UAMMC9 in vitro and in vivo shown in A and Figure 3B . […] SE N P 1 stability wa s analyzed by using We s t e r n blot aga inst SE NP 1 antibody.
(D) Quantification of no n‐denatured SENP1 frac ti on sh own in C. (E) Quantification of th e levels of pSTAT3 as shown in Fi g u e 3C. […]

IC50: 388 nM
Structure (SMILES): C[C@H]1[C@H](C)CC[C@]2(C(=O)NCC(=O)N(C)CCO)CC[C@]3(C)C(=CC[C@@H]4[C@@]5(C)CC[C@H](O)C(C)(C)[C@@H]5CC[C@]43C)[C@H]12 [UAMMC9]
